For data set [1], the system named is HBV. Briefly: Anti-HBV activity in HepG2.117 cell line (intracellular HBV DNA, real-time PCR). The settings on record: HepG2.117 cells, HBV replication induced, 3 days of treatment, intracellular HBV DNA by real-time PCR. The format is cell-based, hepatitis B virus. A digest of the protocol:
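HepG2.117 cells (Tet-off, doxycycline-free HBV replication) induced for HBV replication, then exposed to serially diluted compound for 3 days. Intracellular HBV DNA quantified by real-time PCR with HBV-specific primers and probe.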
Background: In qPCR the cycle at which signal appears reflects the starting amount.

Data set [2] has as its system HepG2 or HepG2.117 cells. Briefly: Cytotoxicity, ATPlite Luminescence Assay. In kind it is cell-based, human. The settings on record: 3-days incubation unless marked with *, ATPlite viability. Put shortly: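 Cells were exposed to compounds for 3 or 4 days, after which viability was determined by ATP-based luminescence (ATPlite).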
A short description of data set [3]: Human liver microsome stability. In kind it is in vitro ADME. The settings on record: 1 μM compound, NADPH 1 mM, pH 7.4, 37° C., 0-60 min; for HLM Metabolism t1/2: pooled human liver microsomes 0.5 mg/mL. A digest of the protocol: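 Pooled human liver microsomes (0.5 mg/mL) incubated at 37 °C with 1 μM compound in 0.1 M phosphate pH 7.4, 1 mM MgCl2; 1 mM NADPH starts reaction. Samples quenched in acetonitrile at 0–60 min, analysed by LC-MS against internal standard; half-life from slope of ln peak-area ratio versus time.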
A general note: Liver microsomes are a subcellular fraction often used to study metabolism.

Bounds are passed on as bounds.

As a reminder, the EC50 is the concentration that produces a half-maximal response. Read a high EC50 as lower potency in that assay. A word on the CC50: it is the concentration giving 50% cytotoxicity. High values mean lower toxicity to the cells, low ones greater toxicity to the cells.

As for `CNC(=O)[C@@H]1CN(C(C)c2ccc(OC(F)F)nc2)C(=O)c2c3c(nn21)C[C@@H](C)N(C(=O)c1ccc(Cl)c(Cl)c1)C3` (single isomer, unassigned) [Compound 11B, (3R,7S)-2-(3,4-dichlorobenzoyl)-9-((S*)-1-(6-(difluoromethoxy)pyridin-3-yl)ethyl)-N,3-dimethyl-10-oxo-1,2,3,4,7,8,9,10-octahydropyrido[4′,3′:3,4]pyrazolo[1,5-a]pyrazine-7-carboxamide], a half-maximal effect in data set [1] (EC50) was put at 0.052 µM. In data set [2], this compound displayed a CC50 of 23.4 µM. Moreover, the “HLM Metabolism t1/2” value in data set [3] is more than 3 h.
In data set [1], `CC(c1ccc(OC(F)F)nc1)N1C[C@@H](C(N)=O)n2nc3c(c2C1=O)CN(C(=O)c1ccc(Cl)c(Cl)c1)[C@H](C)C3` (single isomer, unassigned) [Compound 12B, (3R,7S)-2-(3,4-dichlorobenzoyl)-9-((S*)-1-(6-(difluoromethoxy)pyridin-3-yl)ethyl)-3-methyl-10-oxo-1,2,3,4,7,8,9,10-octahydropyrido[4′,3′:3,4]pyrazolo[1,5-a]pyrazine-7-carboxamide] displayed an EC50 of 0.027 µM. Moreover, the CC50 in data set [2] was found to be 27.4 µM. The “HLM Metabolism t1/2” value in data set [3] is more than 3 h.
`CNC(=O)[C@@H]1CN(C(C)c2ccc(S(C)(=O)=O)cc2)C(=O)c2c3c(nn21)C[C@@H](C)N(C(=O)c1ccc(Cl)c(C(F)(F)F)c1)C3` (single isomer, unassigned) [Compound 19B, (3R,7S)-2-(4-chloro-3-(trifluoromethyl)benzoyl)-N,3-dimethyl-9-((S*)-1-(4-(methylsulfonyl)phenyl)ethyl)-10-oxo-1,2,3,4,7,8,9,10-octahydropyrido[4′,3′:3,4]pyrazolo[1,5-a]pyrazine-7-carboxamide] showed an EC50 in data set [1] of 0.028 µM. This compound also returned a CC50 in data set [2] of more than 50 µM. Also, in data set [3], the “HLM Metabolism t1/2” value is more than 3 h.
Taken in the same sequence, the figures for `CNC(=O)[C@@H]1CN(C(C)c2ccc(S(=O)(=O)C3CC3)cc2)C(=O)c2c3c(nn21)C[C@@H](C)N(C(=O)c1ccc(Cl)c(C(F)(F)F)c1)C3` (single isomer, unassigned) [Compound 20B, (3R,7S)-2-(4-Chloro-3-(trifluoromethyl)benzoyl)-9-((S*)-1-(4-(cyclopropylsulfonyl)phenyl)ethyl)-N,3-dimethyl-10-oxo-1,2,3,4,7,8,9,10-octahydropyrido[4′,3′:3,4]pyrazolo[1,5-a]pyrazine-7-carboxamide] were 0.022 µM, more than 50 µM and more than 3 h.
On the same counts, the results for `CCC(c1ccc(S(C)(=O)=O)cc1)N1C[C@@H](C(=O)NC)n2nc3c(c2C1=O)CN(C(=O)c1ccc(Cl)c(Cl)c1)[C@H](C)C3` (single isomer, unassigned) [Compound 22B, (3R,7S)-2-(3,4-dichlorobenzoyl)-N,3-dimethyl-9-((S*)-1-(4-(methylsulfonyl)phenyl)propyl)-10-oxo-1,2,3,4,7,8,9,10-octahydropyrido[4′,3′:3,4]pyrazolo[1,5-a]pyrazine-7-carboxamide] are 0.05 µM, more than 50 µM and more than 3 h.
Taken in the same sequence, the figures for `CNC(=O)[C@@H]1CN(C(C)c2ccc(C#N)cc2)C(=O)c2c3c(nn21)C[C@@H](C)N(C(=O)c1ccc(Cl)c(Cl)c1)C3` (single isomer, unassigned) [Compound 23B, (3R,7S)-9-((S*)-1-(4-cyanophenyl)ethyl)-2-(3,4-dichlorobenzoyl)-N,3-dimethyl-10-oxo-1,2,3,4,7,8,9,10-octahydropyrido[4′,3′:3,4]pyrazolo[1,5-a]pyrazine-7-carboxamide] were 0.023 µM, more than 50 µM and more than 3 h.
In data set [1], `CNC(=O)[C@@H]1CN(C(C)c2ccc(OC(F)F)c(F)c2)C(=O)c2c3c(nn21)C[C@@H](C)N(C(=O)c1ccc(Cl)c(Cl)c1)C3` (single isomer, unassigned) [Compound 24B, (3R,7S)-2-(3,4-dichlorobenzoyl)-9-((S*)-1-(4-(difluoromethoxy)-3-fluorophenyl)ethyl)-N,3-dimethyl-10-oxo-1,2,3,4,7,8,9,10-octahydropyrido[4′,3′:3,4]pyrazolo[1,5-a]pyrazine-7-carboxamide] returned an EC50 of 0.013 µM. In data set [2], the midpoint of cytotoxicity, the CC50, lay at 25.5 µM. In data set [3], the “HLM Metabolism t1/2” value is more than 3 h.
As to `CC(c1ccc(OC(F)F)cc1)N1C[C@@H](C(=O)NC2CC2)n2nc3c(c2C1=O)CN(C(=O)c1ccc(Cl)c(C#N)c1)[C@H](C)C3` (single isomer, unassigned) [Compound 26B, (3R,7S)-2-(4-chloro-3-cyanobenzoyl)-N-cyclopropyl-9-((S*)-1-(4-(difluoromethoxy)phenyl)ethyl)-3-methyl-10-oxo-1,2,3,4,7,8,9,10-octahydropyrido[4′,3′:3,4]pyrazolo[1,5-a]pyrazine-7-carboxamide], the EC50 in data set [1] amounted to 0.09 µM. The same compound yielded a CC50 in data set [2] of more than 50 µM. Further, the “HLM Metabolism t1/2” value in data set [3] stood at 1.12 h.
With `CNC(=O)[C@@H]1CN(C(C)c2ccc(-c3nnnn3C)cc2)C(=O)c2c3c(nn21)C[C@@H](C)N(C(=O)c1ccc(Cl)c(Cl)c1)C3` (single isomer, unassigned) [Compound 29B, (3R,7S)-2-(3,4-dichlorobenzoyl)-N,3-dimethyl-9-((S*)-1-(4-(1-methyl-1H-tetrazol-5-yl)phenyl)ethyl)-10-oxo-1,2,3,4,7,8,9,10-octahydropyrido[4′,3′:3,4]pyrazolo[1,5-a]pyrazine-7-carboxamide], a half-maximal effect in data set [1] (EC50) was put at 0.082 µM. The compound further had a CC50 in data set [2] of more than 50 µM. Also, the “HLM Metabolism t1/2” value in data set [3] was more than 3 h.
`CNC(=O)[C@@H]1CN(C(C)c2ccc(-n3nnc(C)n3)cc2)C(=O)c2c3c(nn21)C[C@@H](C)N(C(=O)c1ccc(Cl)c(Cl)c1)C3` (single isomer, unassigned) [Compound 30A, (3R,7S)-2-(3,4-Dichlorobenzoyl)-N,3-dimethyl-9-((R*)-1-(4-(5-methyl-2H-tetrazol-2-yl)phenyl)ethyl)-10-oxo-1,2,3,4,7,8,9,10-octahydropyrido[4′,3′:3,4]pyrazolo[1,5-a]pyrazine-7-carboxamide] gave an EC50 in data set [1] (Hepatitis B virus, HepG2.117, 72 h) of 0.016 µM. This compound displayed a CC50 in data set [2] of more than 50 µM. In addition, the half-life at 1 μM in data set [3] (human, pooled human liver microsomes, pH 7.4, pooled human liver microsomes 0.5 mg/mL, read-out: HLM Metabolism t1/2) is more than 3 h.
On to `CNC(=O)[C@@H]1CN(C(C)c2ccc(-n3nnc(C)n3)cc2)C(=O)c2c3c(nn21)C[C@@H](C)N(C(=O)c1ccc(Cl)c(Cl)c1)C3` (single isomer, unassigned) [Compound 30B, (3R,7S)-2-(3,4-dichlorobenzoyl)-N,3-dimethyl-9-((S*)-1-(4-(5-methyl-2H-tetrazol-2-yl)phenyl)ethyl)-10-oxo-1,2,3,4,7,8,9,10-octahydropyrido[4′,3′:3,4]pyrazolo[1,5-a]pyrazine-7-carboxamide], for which the EC50 in data set [1] is 0.017 µM. Further, the midpoint of cytotoxicity in data set [2], the CC50, lay at 17.2 µM. The “HLM Metabolism t1/2” value in data set [3] came out at 1.52 h.
With `CNC(=O)[C@@H]1CN(C(C)c2ccc(OC)nc2)C(=O)c2c3c(nn21)C[C@@H](C)N(C(=O)c1ccc(Cl)c(Cl)c1)C3` (single isomer, unassigned) [Compound 31B, (3R,7S)-2-(3,4-dichlorobenzoyl)-9-((S*)-1-(6-methoxypyridin-3-yl)ethyl)-N,3-dimethyl-10-oxo-1,2,3,4,7,8,9,10-octahydropyrido[4′,3′:3,4]pyrazolo[1,5-a]pyrazine-7-carboxamide], the EC50 in data set [1] amounted to 0.018 µM. In data set [2], this compound gave a CC50 of more than 50 µM. Also, the “HLM Metabolism t1/2” value in data set [3] is more than 3 h.
